What was measured:
[1] = Blood markers (Vetscan) in a separate cohort of old mice; format: in vivo, female C57/BL6 mice; conditions: ~19 mo females, before 4th round, Compound 2 10 mg/kg, Compound 3 25 mg/kg, versus vehicle
Description: Blood was collected prior to each round of injection for physiological assessments. Mice were allowed to rest 4 weeks prior to being culled and organs collected for freezing in OCT, paraffin embedding and snap-freezing for RNA extraction.
For analysis of immune cell composition in whole blood, tail-vein blood was collected 2 days after last treatment. Whole blood was diluted in saline to a volume of […] and ran on a Sysmex XE2100 automated cell counter. Blood glucose levels were determined by collecting whole-blood from tail vein into heparinised tubes (Abraxis), 120-140 μL of whole-blood to be loaded onto a comprehensive diagnostic profile reagent rotor (Abraxis) and run on a VetScan VS2 Chemistry Analyzer (Abraxis: 500-7123).
Further experiments were performed on a separate cohort of old mice. […] This regimen was repeated 4 more times and blood was collected for Vetscan measurements prior to the 4th round of treatment (FIG. 19). At that stage, ~19 mo females presented elevated levels of ALT, amylase and glucose in blood when compared with young mice (FIG. 20A).

[2] = system: HCT116 colon cancer cells; test: Senolytic survival assay, chemotherapy-induced senescence in cancer cells; format: cell-based, human; conditions: second experiment: doxorubicin 100 nM, etoposide 2 μM or cisplatin 100 μM, or DMSO; replenished after 72 h, 48 h more; FIGS. 7A-C
Description: IMR90 cells were used to generate inducible ER:RAS (hereinafter iRAS) cells to model Oncogene induced senescence (OIS), through retroviral infection of pLNC-ER:RAS-neo into IMR90 cells followed by selection with Neomycin. IMR90 cells containing the pLNC-ER:RAS plasmid backbone pLXSN were infected in parallel to assess leakiness in the pLNC-ER:RAS system. Treatment with 100 nM 4OHT (Sigma, in DMSO) was used to induce IMR90 ER:RAS cells to undergo oncogene induced senescence (OIS). Therapy induced senescence (TIS) was induced in IMR90 cells by treatment with 33 μM (50 ug/ml) bleomycin sulphate (Generon, HY-17565) for 24 hours, 20 μM palbociclib (Selleckchem, S1116) for 7 days or 100 nM doxorubicin (Cayman chemical, 15007) for 7 days. Senescence was induced in SK-HEP-1 cells by treatment with 2 μM etoposide (Sigma-Aldrich, E1383) for 7 days (FIGS. 4A-C). HCT-116 senescence was induced by 250 nM treatment with doxorubicin (Cayman chemical, 15007) for 48 hours followed by 5 days culture in media without chemotherapy (FIG. 5), or by treatment with 100 nM doxorubicin, 2 μM etoposide or 100 μM cisplatin for 3 days followed by 4 days culture in media without chemotherapy (FIGS. 6A-7C). Senescence was induced in MCF7 by 200 nM treatment with doxorubicin for 7 days, 2 μM etoposide for 7 days or 10 μM cisplatin for 7 days (FIGS. 8A-9C).
High-throughput microscopy survival assay—To assess senolytic effect of drugs, cells were cultured for 7 days, culture media was changed to DM0.5 media and drugs in DMSO were added (<5% v/v final concentration), drugs were replenished after 3 days if assay length was longer than 72 h. Wells were fixed in 4% PFA for 1 hour at day 10 to 14, washed 3 times with PBS and then stained with 1 μg/mL DAPI (w/v, PBS) for 10 minutes. Wells were then washed 3 times with PBS. Optionally plates could be stored at 4° C. for up to 2 weeks and DAPI stained. Image acquisition of DAPI stained cells was performed on an automated InCell Analyser 2000 (GE Healthcare®) and high-content analysis on the InCell Investigator 2.7.3 software used to quantify number of DAPI positive cells per well. […] Survival was measured as cell counts relative to DMSO treated quiescent or senescent cells.
In a first experiment, HCT116 colon cancer cells were treated with doxorubicin (to induce senescence), or DMSO (as a control). […] 7 days after adding the drugs with replenishment after 3 days, cells were fixed, imaged and cells numbers were quantified using high throughput microscopy. […]
In a second experiment, HCT116 were treated with doxorubicin, etoposide or cisplatin (to induce senescence) or DMSO (as a control). 7 days after treatment, BrdU incorporation (to assess cell division), SA-β-Galactosidase activity and p21^CIP1 expression (as markers of senescence) were analysed. […]

[3] = system: senescent preneoplastic hepatocytes; test: Model of liver cancer initiation (Nras G12V by hydrodynamic tail vein injection); format: in vivo, C57BL/6J mice; conditions: 25 mg/kg i.p. daily for 4 days from day 5 after HDTVI; FIGS. 16C-E
Description: All mice were purchased from Charles River UK, Ltd. For Hydrodynamic tail vein injection (HDTVI) experiments female C57BL/6J mice aged 5-6 weeks were given 20 μg of Nras^G12V & gaussia luciferase (Gluc) expressing plasmid and 5 μg of SB13 transposase-expressing plasmid. Plasmids were prepared using GeneElute HP Endotoxin-free Plasmid Maxiprep kit (Sigma). Purified plasmids were diluted in sterile-filtered PBS to a total volume of 10% mouse body weight and injected into mouse lateral tail vein within a 10 s window. 4 days after HDTVI, mice were bled to assess presence of gaussia luciferase signal in the blood serum and used to randomize/equalize groupings for vehicle and drug treated groups. […]
Immunohistochemical staining—Slides were deparaffinised by washing slides twice in Histoclear™ for 5 min each, followed by 5 min washes in decreasing concentrations of ethanol with 100%, 75%, 50% & 25% ethanol washes before a final wash 5 min in dH2O. […] Signal development was stopped when visible positive cells could be detected on a microscope, by washing slides in dH2O. […]
Slide image acquisition & analysis—Slides were acquired using a 20× brightfield objective on a Zeiss Axio Scan Z.1 slide scanner and analysis performed using QuPath version 0.2.0-m9 using in built positive cell detection tool to segment Haematoxylin stained nuclei and quantify mean intensity of DAB. […]

Cc1c(CCOc2cc(Cl)ccc2-c2ccc3ncc(CCN)n3c2)c(C(=O)N(C)C)nn1C [Compound 3, 4-(2-{2-[3-(2-aminoethyl)imidazo[1,2-a]pyridin-6-yl]-5-chlorophenoxy}ethyl)-N,N,1,5-tetramethyl-1H-pyrazole-3-carboxamide]
ALT in blood ([1]; FIG. 20A): lower level | Amylase in blood ([1]; FIG. 20B): lower level | Glucose in blood ([1]; FIG. 20C): lower level | Survival, senescent versus control cells [2]: preferentially kill cancer cells that undergo senescence after being treated with doxorubicin, etoposide or cisplatin | Number of senescent preneoplastic hepatocytes [3]: reduces the number senescent preneoplastic hepatocytes
